Results from ChEMBL document CHEMBL1201862, “PubChem BioAssay data set” (2004).
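The compound was tested at five concentrations on cells cultured in 96-well plates, with a 48-hour exposure period. GI50 is the concentration that inhibits growth by half.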 Activity calls are given as the source filed them. No stated cut-off is given here; in the data, active = GI50 up to about 1.1 µM and inactive = higher.

Experiments:
Experiment in all cases: NCI tumour cell line growth inhibition, 48 h
LXFL 529 = test system: LXFL 529
DMS-114 = test system: DMS-114
KM-20L2 = test system: KM-20L2
DLD-1 = test system: DLD-1
HOP-18 = test system: HOP-18
SNB-78 = test system: SNB-78
M19-MEL = test system: M19-MEL
XF498 = test system: XF498
RXF 631 = test system: RXF 631

Measured: GI50

CN[C@@H]1C[C@H]2O[C@@](C)([C@@H]1OC)n1c3ccccc3c3c4c(c5c6ccccc6n2c5c31)C(=O)N[C@@H]4O
active: LXFL 529 0.119 µM | DMS-114 0.104 µM | KM-20L2 0.104 µM | DLD-1 0.149 µM | HOP-18 0.01 µM | SNB-78 0.0344 µM | M19-MEL 0.135 µM | XF498 0.0356 µM

c1cnc2c3[nH]cc4[nH]c5ccccc5c4c-3nc2c1
inactive: LXFL 529 68.1 µM | DMS-114 > 100 µM | KM-20L2 76.2 µM | DLD-1 37.8 µM | SNB-78 > 100 µM | M19-MEL > 100 µM | XF498 > 100 µM

Cc1[nH]c2ccccc2c1/C=C/c1c(C)[nH]c2ccccc12
inactive: LXFL 529 > 100 µM | DMS-114 > 100 µM | KM-20L2 > 100 µM | DLD-1 > 100 µM | SNB-78 > 100 µM | M19-MEL > 100 µM | XF498 > 100 µM

C=CCN(C)CN(C)c1nc(N(C)C)nc(N(C)C)n1
inactive: LXFL 529 26.1 µM | DMS-114 19.7 µM | KM-20L2 > 100 µM | DLD-1 49.4 µM | HOP-18 > 100 µM | SNB-78 > 100 µM | M19-MEL > 100 µM

CCN(CC)Cc1c(/C=C\c2cc(OC)c(OC)c(OC)c2)ccc(OC)c1O
inactive: LXFL 529 5.53 µM | DMS-114 2.23 µM | KM-20L2 3.52 µM | DLD-1 4.09 µM | HOP-18 > 100 µM | SNB-78 4.17 µM | M19-MEL 3.22 µM | XF498 4.08 µM

Fc1cccc(C2SCc3nc4ccccc4n32)c1 (centres undefined)
inactive: RXF 631 32.7 µM | LXFL 529 25.2 µM | DMS-114 26.3 µM | DLD-1 43.8 µM | SNB-78 30.6 µM | M19-MEL 51.4 µM

CN1NC(c2ccccc2)=C(C#N)C(=O)CC1c1ccccc1Cl (centres undefined)
inactive: RXF 631 > 100 µM | LXFL 529 > 100 µM | DMS-114 > 100 µM | DLD-1 61.4 µM | HOP-18 67.3 µM | SNB-78 > 100 µM | XF498 > 100 µM

Nc1nc(S)nc(C(=O)Nc2nccs2)c1-c1ccccc1
inactive: LXFL 529 > 100 µM | DMS-114 > 100 µM | KM-20L2 > 100 µM | DLD-1 > 100 µM | HOP-18 > 100 µM | SNB-78 > 100 µM | M19-MEL > 100 µM | XF498 > 100 µM

O=Cc1ccc2c(c1I)OCO2
inactive: KM-20L2 > 100 µM | DLD-1 > 100 µM | HOP-18 > 100 µM | SNB-78 > 100 µM | M19-MEL > 100 µM

COc1ccc(CN2CCC/C=C/CC(Cl)(Cl)C2=O)cc1
inactive: LXFL 529 31.4 µM | DMS-114 24.7 µM | KM-20L2 49.4 µM | DLD-1 31.6 µM | HOP-18 56.6 µM | M19-MEL 29.2 µM

COc1ccc2c(c1)OC[C@@H]1c3cc4c(cc3O[C@H]21)OCO4
inactive: LXFL 529 > 100 µM | DMS-114 > 100 µM | KM-20L2 > 100 µM | DLD-1 > 100 µM | HOP-18 37.2 µM | SNB-78 > 100 µM | XF498 > 100 µM

Cc1ccc2sc3cc(=O)cc(C)c-3nc2c1
inactive: RXF 631 54.1 µM | LXFL 529 28 µM | DMS-114 19.6 µM | KM-20L2 > 100 µM | DLD-1 76 µM | HOP-18 > 100 µM | SNB-78 > 100 µM | M19-MEL 16 µM

C=CC(=O)c1ccc2c(c1)OCCOCCOCCOCCOCCO2
inactive: LXFL 529 16.9 µM | DMS-114 19.3 µM | KM-20L2 30.2 µM | DLD-1 16.4 µM | HOP-18 16.1 µM | SNB-78 17.7 µM | M19-MEL 17.8 µM | XF498 15.3 µM

O=C1c2ccccc2C(=O)N1C/C=N/NS(=O)(=O)c1ccc(Br)cc1
inactive: RXF 631 > 100 µM | LXFL 529 > 100 µM | DMS-114 51.6 µM | KM-20L2 > 100 µM | DLD-1 > 100 µM | HOP-18 > 100 µM | SNB-78 > 100 µM | M19-MEL > 100 µM | XF498 > 100 µM

Nc1c(-c2cn(Cc3ccccc3)c3ccccc23)[n+]([O-])c2ccccc2[n+]1[O-]
inactive: LXFL 529 23.9 µM | DMS-114 16.7 µM | KM-20L2 34.6 µM | DLD-1 32.7 µM | SNB-78 53.8 µM | M19-MEL 38.9 µM | XF498 12.6 µM

CC(=O)OC1CCn2nnc(CO)c21 (centres undefined)
inactive: LXFL 529 > 100 µM | DMS-114 > 100 µM | KM-20L2 > 100 µM | DLD-1 > 100 µM | HOP-18 > 100 µM | SNB-78 > 100 µM | M19-MEL > 100 µM | XF498 > 100 µM

COc1cc2c(oc(=O)c3c4oc([Si](C)(C)C)cc4cc(OC)c23)c2cccc(OCc3ccccc3)c12
inactive: LXFL 529 27.2 µM | DMS-114 50.6 µM | KM-20L2 > 66.1 µM | DLD-1 55 µM | HOP-18 28 µM | SNB-78 17 µM | M19-MEL 48.2 µM | XF498 8.32 µM

O=c1[nH]c(=O)n(C2OC(CO)C(N(O)Cc3ccc(F)cc3)C2O)cc1Br (centres undefined)
inactive: LXFL 529 > 100 µM | DMS-114 > 100 µM | KM-20L2 > 100 µM | DLD-1 > 100 µM | SNB-78 > 100 µM | M19-MEL > 100 µM

O=C(Nc1nnc(S)[nH]1)C(=O)C(C(=O)c1ccc2ccccc2c1)C1OC(=O)c2ccccc21 (centres undefined)
active: HOP-18 0.305 µM
inactive: RXF 631 21.8 µM | LXFL 529 12.1 µM | DMS-114 12.2 µM | KM-20L2 35.3 µM | DLD-1 19.5 µM | SNB-78 29.8 µM | M19-MEL 13.8 µM | XF498 2.09 µM

c1ccc(P(=C2c3ccccc3-c3ccccc32)(c2ccccc2)c2ccccc2)cc1
inactive: RXF 631 5.64 µM | LXFL 529 3.85 µM | DMS-114 2.79 µM | KM-20L2 2.56 µM | DLD-1 4.32 µM | HOP-18 4.47 µM | M19-MEL 4.94 µM

CCOC(=O)C(C)Sc1nnc(COc2ccc(Cl)cc2)n1-c1ccccc1 (centres undefined)
inactive: LXFL 529 16.4 µM | KM-20L2 18.5 µM | DLD-1 19.8 µM | HOP-18 49 µM | SNB-78 26.1 µM | M19-MEL 19.1 µM

CCOC(=O)Cn1c(=O)[nH]c(=O)c2[nH]cnc21
inactive: RXF 631 > 100 µM | LXFL 529 > 100 µM | DMS-114 > 100 µM | KM-20L2 > 100 µM | DLD-1 > 100 µM | HOP-18 > 100 µM | SNB-78 > 100 µM | M19-MEL > 100 µM

CS(=O)(=O)OCCCOS(C)(=O)=O
inactive: LXFL 529 > 100 µM | DMS-114 > 100 µM | KM-20L2 > 100 µM | DLD-1 > 100 µM | HOP-18 > 100 µM | SNB-78 > 100 µM | M19-MEL > 100 µM | XF498 > 100 µM

COC(=O)CC(=O)OC1C[C@@H]2CCC3C(C)(C)CCC[C@]3(C)C23CC[C@@]1(C)C3 (some centres undefined)
inactive: DMS-114 20.2 µM | KM-20L2 20 µM | DLD-1 18.8 µM | SNB-78 19.6 µM | M19-MEL 19.1 µM | XF498 19 µM
